Assay results published in US6759422B2, “Ion channel modulating agents” (Neurosearch A/S, priority 1999, dated 2004).

Molecular target: T1, Intermediate-conductance Ca2+-activated K+ channels (IK channels), hIK (Homo sapiens, UniProt O15554)
T1 construct: expressed in transfected cells; host or cells: HEK293
Assay: Whole-cell patch-clamp recording of ionic current through IK channels stably expressed in HEK293 cells
Assay type: cell-based
Conditions: 1 μM test compound, baseline hIK current set to 100 (>100 activator, <100 blocker, 200 = doubling), whole-cell mode
Procedure: In this experiment the ionic current through Intermediate-conductance Ca^2+-activated K^+ channels (IK channels) is recorded in the whole-cell mode of the patch-clamp technique.
Intermediate-conductance Ca^2+-activated K^+ channels (IK channels) have been cloned from human placenta and stably expressed in HEK293 cells.
Human IK (hIK) was excised from pT3T7 (GenBank Acc. No. N56819) using EcoR I and Not I and subcloned into the mammalian expression vector pNS1Z (NeuroSearch), a custom designed derivative of pcDNA3Zeo (InVitrogen) to give the plasmid construct pNS1Z_hIK. HEK293 tissue culture cells were grown in DMEM (Dulbecco's Modified Eagle Medium) supplemented with 10% FCS (foetal calf serum) at 37° C. in 5% CO2. One day prior to transfection, 10^6 cells were plated in a cell culture T25 flask. The following day, cells were transfected using lipofection (20 μL Lipofectamin™, Life Technologies, with 2.5 μg of the plasmid pNS1Z_hIK in a total volume of 540 μL).
The lipofection mixture was overlaid on the cells and incubated at 37° C. for 5 hours. The cells were then rinsed with regular media and grown for 72 hours in DMEM, 10% FCS at 37° C. in 5% CO2. […]
Experiments are carried out on a patch-clamp workstation equipped with an autosampler. […] Data are stored directly on the harddisk and analysed by the IGOR software (wavemetrics, Lake Oswego, USA)
The whole-cell configuration of the patch clamp technique is applied. […] Cell capacitance is electronically compensated and the resistance between the pipette and the cell interior (the series resistance, Rs) is measured and compensated for. […]
The extracellular (bath) solution contains (conc. in mM): 144 KCl, 0.1 CaCl2, 3 MgCl2, 10 HEPES (pH=7.4). The intracellular (pipette) solution has the following composition (conc. in mM): 144 KCl, 10 EGTA, 10 HEPES (pH=7.2) as well as CaCl2 and MgCl2 in concentrations calculated to result in a free concentration of Ca^2+ between 100 nM and 300 nM. The free concentration of Mg^2+ is calculated to be 1 mM. […]

| Ionic Currents: Value determined using 1 μM of the test compound | SMILES |
| --- | --- |
| 170 | Nc1nc2c(Cl)c(Cl)ccc2s1 [Compound 1, 2-amino-4,5-dichlorobenzothiazole] |
| 130 | Cc1ccc2sc(N)nc2c1C [Compound 2, 2-amino-4,5-dimethylbenzothiazole] |

| SMILES | Ionic Currents: Value determined using 1 μM of the test compound |
| --- | --- |
| Nc1nc2c3c(ccc2s1)CCCC3 [Compound 3, 2-amino-(5,6,7,8-tetrahydronaphto)-[1,2-d]-thiazole] | 400 |
